# From patent US11712443B2, “17α-monoesters and 17α,21-diesters of cortexolone for use in the treatment of tumors” (COSMO TECHNOLOGIES LTD., priority 2014, dated 2023)
# How the values were obtained:
# [1] = system: Caspase 8 and Caspase 9; assay: Caspase activity assay in MiaPaca2 cells; assay type: cell-based; settings: 20 or 50 μM, evident after 8 hours, corrected for viable cells
# Procedure: (§1) To better analyze the phenomenon the enzymatic activity of Caspase 8 (initiator caspase for Extrinsic Pathway) and Caspase 9 (initiator caspase for Intrinsic Pathway) and of Caspases 3 and 7 (effector caspases) were measured.
# [2] = system: MiaPaca2 cells; assay: Apoptosis induction, Annexin V / propidium iodide flow cytometry; assay type: cell-based; settings: 24 hours; control 11%; FIG. 9
# Procedure: CB-03-10 was evaluated to determine if the mechanism of cytotoxicity on cancer cell lines was mediated by apoptosis and cell cycle arrest. Cancer cell lines were seeded in 6-well flat bottom plates. After 24 hours test compounds or DMSO vehicle (negative control) were added. After an additional 24 hours cells were scraped and stained with fluorescein conjugated Annexin V and propidium iodide and analyzed by flow cytometry.
# [3] = system: BxPC3; settings: human, 3 days
# [4] = system: Caspase 3/7; assay: Caspase activity assay in MiaPaca2 cells; assay type: cell-based; settings: 8, 24, 48 hours, FIG. 11
# Procedure: as §1
# [5] = system: Caspases 8, 9 and 3/7; assay: Caspase activity assay in LNCaP prostate cancer cells; assay type: cell-based; settings: 24 hours, FIG. 12
# Procedure: After 24 hours test compounds were added to cells, Gemcitabine (a known pancreatic cancer chemotherapeutic agent) and DMSO were used as positive and negative control, respectively. After 8, 24, & 48 hours incubation with test compounds, cells were lysed in buffer containing the caspase 3/7 or 8 or 9 substrate and a stable luciferase in proprietary buffers. The lysates were transferred to white opaque plates before measuring luminescence in a Tecan S afire instrument. Parallel plates treated identically, were used to determine viable cells. All caspase activities were corrected for the number of viable cells.
# Same assay was repeated using LNCaP prostate cancer cell lines (FIG. 12). […] The results are shown in FIG. 12 at 24 hours incubation when the caspase activities peaked.
# [6] = system: LNCaP prostate cancer xenograft; assay: Human prostate cancer xenograft in nude mice, oral treatment; assay type: in vivo
# Procedure: 3×10^6 LNCaP cells suspended in matrigel were subcutaneously injected (on the right flank) into 6 week old male athymic nude mice. Tumors were measured as described above. Treatment with CB-03-10 and controls compounds was initiated after the tumor had reached 50 mm3. […] Oral dosing was daily (100 mg/Kg in 200 μL/mouse) for 28 consecutive days. Results were plotted as average change in tumor volume relative to the start of treatment.
# [7] = system: LNCaP; assay: ATP-dependent proliferation/viability assay (Cell Titer Glo), 3 days; settings: 3 days
# [8] = system: HT29; assay: In vitro proliferation, larger cancer cell line panel; settings: HT29
# [9] = system: HT29; assay: MTT colorimetric assay, 72 h; assay type: cell-based; settings: human, 72 h
# Procedure: The experiment was performed to test and define anticancer activity in vitro of Cortexolone 17α-benzoate and cortexolone 17α-valerate-21-propionate on cell lines representatives of epithelial intestinal tumors, namely HT29. The experiment method consisted in: • 1. Monolayer HT-29 cells were plated in: 96-wells plates at the density of 2×10^4 cells/mL. The cells plated were kept at 37° C. in 5% CO2 and left to attach for 24 h. • 2. […] After 72 h of treatment, the MTT colorimetric assay was performed.
# [10] = target: T1, Glucocorticoid Receptor (Homo sapiens, UniProt P04150); assay: GR transcriptional reporter assay, antagonist mode; assay type: cell-based; settings: inhibition of luminescence induced by Dexamethasone; compared to RU486; FIG. 7
# T1 construct: endogenous in cells; host or cells: human kidney epithelial cells
# T1 sequence (P04150 1-777): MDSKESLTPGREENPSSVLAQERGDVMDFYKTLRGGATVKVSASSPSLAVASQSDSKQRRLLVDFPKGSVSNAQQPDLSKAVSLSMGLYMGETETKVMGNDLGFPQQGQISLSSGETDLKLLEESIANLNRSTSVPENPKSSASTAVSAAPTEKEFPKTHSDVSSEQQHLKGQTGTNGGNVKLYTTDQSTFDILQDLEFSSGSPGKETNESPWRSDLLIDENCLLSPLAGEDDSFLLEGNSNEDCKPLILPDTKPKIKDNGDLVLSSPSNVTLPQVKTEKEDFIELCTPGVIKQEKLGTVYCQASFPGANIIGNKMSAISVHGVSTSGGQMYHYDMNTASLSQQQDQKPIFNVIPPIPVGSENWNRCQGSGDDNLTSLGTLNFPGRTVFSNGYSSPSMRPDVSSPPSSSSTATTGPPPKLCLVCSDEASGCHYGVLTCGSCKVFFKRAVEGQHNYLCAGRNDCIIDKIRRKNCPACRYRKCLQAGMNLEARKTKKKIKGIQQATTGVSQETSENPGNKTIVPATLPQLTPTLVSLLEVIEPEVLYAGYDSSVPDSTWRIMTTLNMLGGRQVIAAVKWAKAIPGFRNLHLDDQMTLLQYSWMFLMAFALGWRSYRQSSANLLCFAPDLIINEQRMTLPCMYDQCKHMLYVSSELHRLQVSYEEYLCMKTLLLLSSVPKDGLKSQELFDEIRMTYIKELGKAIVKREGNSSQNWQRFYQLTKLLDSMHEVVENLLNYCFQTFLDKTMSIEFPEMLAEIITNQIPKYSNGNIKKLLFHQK
# Procedure: The androgen and glucocorticoid hormones elicit divergent and often opposing effects in cells, tissues, and animals. […] CB-03-10 GR antagonist and agonist activities were tested in an in vitro assay. Briefly, human kidney epithelial cells were transfected with DNA construct containing GR binding sites linked to luminescent based reporter molecule. After 24 hours, cells were treated under antagonist or agonist modes. After an additional 24 hours, luminescence which is proportional to GR agonist transcriptional activity was quantitated.
# Antagonist Assay was based on inhibition of luminescence induced by Dexamethasone (Dex).
# The antagonist activity of CB-03-10 was compared to a known GR antagonist, Mifepristone (also called RU486) as shown in FIG. 7.
smiles,measurement,setting,value
"CCCCC(=O)O[C@]1(C(=O)COC(=O)CC)CC[C@H]2[C@@H]3CCC4=CC(=O)CC[C@]4(C)[C@H]3CC[C@@]21C [CB-03-10, cortexolone 17α-valerate-21-propionate]","caspase 8 and 9 activity, increase compared to control",[1],≤ 7 fold
same,"cells in apoptosis (early and late apoptosis), total",[2],28%
same,Therapeutic Index = IC50 resting PBMC/IC50 cancer cell,[3],3
same,Therapeutic Index = IC50 stimulated PBMC/IC50 cancer cell,[3],3
same,Caspase 3/7 induction / caspase activation profile,[4],already at 8 hours at and a really high level after 48 hours incubation
same,Initiator (8 and 9) and Effector (3/7) caspase activities,[5],induced Initiator (8 and 9) and Effector (3/7) caspase activities better than Enzalutamide
same,"average tumor volume, times smaller than in the vehicle group",[6]; 6 weeks after treatment was stopped,3.6 times
same,prostate tumor size increase after treatment was stopped,"[6]; oral 100 mg/Kg daily 28 days, after stop",5 fold
same,tumor volume increase relative to start of treatment,"[6]; oral 100 mg/Kg daily, treatment period of 28 days, negative control 10-fold",2 fold
same,statistical significance of tumor growth versus vehicle,"[6]; oral gavage, FIG. 16",statistically significantly different from day 7 up to day 60
same,IC50,"[7]; Homo sapiens, LNCaP, 72 h, LNCaP (AR+), 10 nM DHT, Examples 1-2 Experiment 1, sigmoidal dose response fit",13 µM
same,Therapeutic Index = IC50 resting PBMC/IC50 cancer cell,[7]; human,9
same,Therapeutic Index = IC50 stimulated PBMC/IC50 cancer cell,[7]; human,9
same,Therapeutic Index = IC50 resting PBMC/IC50 cancer cell,[8]; Table IV,3
same,Therapeutic Index = IC50 stimulated PBMC/IC50 cancer cell,[8]; Table VII,3
same,"Therapeutic Index (TI), Stimulated PBMC",[9],3
same,GR antagonist activity,[10],potent antagonist (10 times less than RU486)
